The values that follow are results of earlier work, collected in US20240016419A1, “ELECTROCHEMICAL GLUCOSE SENSING BY EQUILIBRIUM GLUCOSE BINDING TO GENETICALLY ENGINEERED GLUCOSE BINDING PROTEINS” (Cercacor Laboratories, Inc., priority 2022, published 2024).

For “A213R: GGBP with Alanine residue at the 213 position changed to an Arginine residue”, the binding constant shift (A213R versus wild-type GGBP, from 0.2 μM to 1 mM) is given as 5000 fold. Further, where the note is “binding to glucose, read-out: binding constant”, the Kd was 1000 µM.
